The record followed here is patent EP1016405A2, “Arylating medicaments” (Radopath Pharmaceuticals International Limited, priority 1993, dated 1994).

Structures are written as SMILES. Several values for one entry are separate records, joined by “and”; a condition that tells them apart may be missing. Equal values may be shown once. Read-outs that look alike come from different tables or passages of the source.

The nature of data set [1]: Anti-tumour activity in vitro. The conditions noted are these: statement in words.
In data set [2] the test system is B16 murine melanoma. The data set is described as follows: Anti-tumour activity against B16 melanoma in C57/black mice, tumour weight inhibition. The format is in vivo, female C57/black mice. The conditions noted are these: statement in words, refers to Table 8.
Data set [3] concerns MAC16, murine colon adenocarcinoma. Description: Anti-tumour activity against MAC16, tumour weight inhibition. The format is in vivo. As to conditions: for % Tumour Weight Inhibition: day 11 after beginning of treatment, sc transplant, corn oil. The protocol: (§1) The purpose of these studies was to evaluate the anti-tumour properties of a group of compounds with structural similarities that may act as arylating agents. Their in vivo anti-tumour responses were assessed against two ascitic tumours, the MAC15A murine colon adenocarcinoma and the P388 murine leukaemia and various solid tumour models.
(§2) The MAC15A ascites tumour cells were transplanted into male NMR1 mice by ip inoculation at a cell density of 1 X 10^5 cells in 200µl buffer (Table 1). The P388 were transplanted ip into male BDF1 mice at cell density of 1 X 10^6 cells in 200µl buffer (Table 2). The solid tumour models included the MAC13 and MAC16 murine colon adenocarcinomas, the B16 F1 murine melanoma and the M5076 reticulum cell sarcoma.
(§3) Treatment commenced 3 days after ip transplant or, in the case of solid tumours such as MAC13 and MAC16, treatment commenced when average tumour volumes reached 40mm^3.
(§4) The animals were sacrificed after 12 days or when tumours ulcerated, tumour volume exceeded 1000mm^3 or loss of body weight exceeded 50%.
(§5) Except where otherwise stated, the compounds used were dissolved in DMSO and diluted in sterile distilled water, at appropriate concentrations before administration in a solvent volume of 200 µl. Anti-tumour responses were obtained by comparing the median survival times or tumour growth inhibition against solvent controls.

Assay in data set [4]: as above
The class given is in vivo, murine. As to conditions: mouse, in vivo; Table 7; ip, per day; corn oil; read-out: maximum tolerated dose. The protocol: as §1, §2, §3, §4, §5

Data set [5] has as its system MAC13 murine colon adenocarcinoma. Description: Anti-tumour activity against MAC13, tumour weight inhibition. The class given is in vivo. The conditions noted are these: 12 days after im transplant, corn oil. The protocol:
as §1, §2, §3, §4, §5

Assay in data set [6]: as above
The class given is in vivo, murine. The conditions noted are these: mouse, in vivo; Table 6; ip, per day; corn oil; read-out: maximum tolerated dose. Here is the method:
as §1, §2, §3, §4, §5

Data set [7] relates to B16F1-murine melanoma. The conditions noted are these: mouse, in vivo.
For data set [8], the system named is uninfected cells.
Data set [9] is described as follows: in vivo. The conditions noted are these: mouse, ip.
Data set [10] has as its system MAC15A (murine adenocarcinoma colon). Description: Anti-tumour activity against MAC15A ascites tumour, survival T/C%. As to conditions: ip. The format is in vivo, mice.
A short description of data set [11]: in vitro. As to conditions: CC50 (Toxicity).
The test system of data set [12] is HIV-1IIIB. Description: Acute infection assay against HIV-1IIIB. The format is cell-based, human immunodeficiency virus. The conditions noted are these: for IC50: Human immunodeficiency virus 1, IIIB, read-out: IC50 (Antiviral).
Data set [13] has as its system M5076 reticulum cell sarcoma. Description: Anti-tumour activity against M5076 reticulum cell sarcoma. The format is in vivo, murine. The conditions noted are these: statement in words. The protocol: as §1, §2, §3, §4, §5
For data set [14], the system named is HIV-1RF. Description: Acute Infection Assay, HIV core antigen ELISA in C8166 cells. The class given is cell-based, human immunodeficiency virus.
The subject of data set [15] is P388 (murine leukaemia). Description: Anti-tumour activity against P388 ascites tumour, survival T/C%. The format is in vivo, mice. As to conditions: Table 2, mean, day 1 to 5. The protocol: as §1, §2, §3
The animals were located in both cases into groups of 5 to 8 animals.
as §4
Except where otherwise stated, the compounds used were dissolved in DMSO and diluted in sterile distilled water, at appropriate concentrations before administration in a solvent volume of 200 µl. […]
T/C% is determined as follows:- […]

With `O=C(O)c1cc([N+](=O)[O-])ccc1Cl` [2-chloro-5-nitrobenzoic acid], the “anti-tumour activity in vitro” value in data set [1] is on record as “could not be supported in vitro”. In addition, the “anti-tumour activity in vivo” value in data set [2] is given as “shows consideration anti-tumour activity in vivo”.

Turning to `O=C(O)c1cc([N+](=O)[O-])c(Cl)c([N+](=O)[O-])c1Cl` [Compound C1, 2,4-dichloro-3,5-dinitrobenzoic acid], the “% Tumour Weight Inhibition” value in data set [3] (50 mg/kg ip, days 1,2,4,5,8) is reported as 91%; in [3] (75 mg/kg ip, days 1,2,5,8) it was 88%; in data set [5] (50 mg/kg ip, days 1,2,3,4,5,6,7,8,9) it was 39%; in [5] (75 mg/kg ip, days 1,4,5), 45%. Further, the “inhibition of tumour growth” value in [3] (statement in words, MAC16 murine colon adenocarcinoma) is “effectively inhibited growth”; in [7], “effectively inhibited growth”. In addition, the MTD at 12 days in [4] and in data set [6] was 75 mg/kg throughout. Moreover, the figures for the CC50 in data set [8] and in data set [11] were 60 µM and 56 µM, respectively. The compound further showed an MTD in [9] of 75 mg/kg. The response vs control in vivo at 100 mg/kg in data set [10] (Mus musculus, MAC15A, read-out: T/C%) worked out at 243%.

For the compound `NC(=O)c1cc([N+](=O)[O-])c(Cl)c([N+](=O)[O-])c1Cl` [Compound C2, 2,4-dichloro-3,5-dinitrobenzamide], the “% Tumour Weight Inhibition” value in data set [5] (1.25 mg/kg ip, days 1,2,3,4,5,6,7,8,9) came out at 17%. In addition, the “% Tumour Weight Inhibition” value in data set [5] (2.5 mg/kg ip, days 1,2,3,4,5,6,7,8,9) stood at 51%. Besides, the MTD at 12 days in data set [6] is 2.5 mg/kg. Moreover, in data set [12], the “SI (Selectivity Index)” value is on record as 35 and the IC50 (as a rule, the concentration at which inhibition is half-maximal) came to 2 µM. Also, the antitumour activity entry in data set [13] is “without antitumour activity”. The MTD in [9] is 2.5 mg/kg. Moreover, in data set [11], the CC50 (commonly the concentration giving 50% cytotoxicity) was determined as 70 µM.

Turning to `COC(=O)c1cc([N+](=O)[O-])c(Cl)c([N+](=O)[O-])c1Cl` [Compound C3, 2,4-dichloro-3,5-dinitrobenzoic acid methyl ester], the IC50 in [12] worked out at 0.3 µM. The antitumour activity result in [13] is “without antitumour activity”. In addition, the CC50 in [11] came to 7 µM.

`O=[N+]([O-])c1cc(S(=O)(=O)O)cc([N+](=O)[O-])c1Cl` [Compound S1, 4-chloro-3,5-dinitrobenzenesulfonic acid] yielded a CD50 in [8] of 80 µM. The “SI (Selectivity Index)” value in data set [14] was 5 and 3. For the same compound, the TI in data set [14] was 28.6. Besides, the IC50 is 3 µM in [14] (read-out: IC50); 20 µM and 19 µM in [14] (read-out: IC50 (Antiviral)). Moreover, in data set [10] (mouse, in vivo), the T/C% is 414%. Also, in data set [11], half-maximal cytotoxicity (CC50) was put at 100 µM. Besides, the TC% was found to be 259% in data set [15] (50 mg kg^-1 per day IP) and 203% in data set [15] (100mg kg^-1 per day IP).
